Data from patent EP4644377A1, “LIPID COMPOUND FOR GENE DELIVERY AND LIPID NANOPARTICLE COMPRISING SAME” (NANJING CYBERNAX BIOMEDICAL TECHNOLOGY CO., LTD., priority 2022, dated 2024).

What was measured:
C57Bl/6 mice = test: Luciferase mRNA delivery in mice, IVIS chemiluminescence; assay type: in vivo; conditions: LNP formulation 2 (SM102: formulation 1); luciferase mRNA 0.25 mg/kg, tail vein, C57Bl/6 mice; whole body signal 6 h after LNP, 10 min after D-luciferin 150 mg/kg i.p.
[1] = Particle size detection of LNP (Brookhaven NanoBrook Omni, DLS); assay type: physicochemical
293T cells = test: In vitro delivery of luciferase mRNA by LNPs, 293T cells; assay type: cell-based, Human; conditions: 100 ng luciferase mRNA per well, 24 h; ratio to naked mRNA control; result in words
Description: (§1) Human embryonic kidney cells (293T cells) and human non-small cell lung cancer cell lines (A549 cells) were obtained from the Chinese Type Culture Collection Center and cultured in DMEM high glucose culture medium containing 10% fetal bovine serum under the environment of 37°C and 5% CO2. The cells were inoculated in a 96-well cell culture plate in a density of 32,000 cells per well. LNPs coating mRNA expressing luciferase (Trilink, USA) were taken and added into the wells at a dose of 100 ng of mRNA per well. Meanwhile, control wells were set on each culture plate, and 100 ng of naked mRNA that was not coated by LNPs was added into each well. The cell culture plate was placed in a cell incubator for 24 h of co-culture under the conditions of 37°C and 5% CO2, and then the transfection effect of mRNA was detected through a One-LumiTM firefly luciferase reporter gene detection kit. The transfection results of LNPs in 293T cells are shown in FIG. 1 to FIG. 6 and FIG. 13 (upper), and the transfection results of LNPs in A549 cells are shown in FIG. 7 to FIG. 12 and FIG. 13 (lower). The transfection efficiency is expressed as a ratio of chemiluminescent intensity of LNP group to chemiluminescent intensity of control group (direct delivery of naked luciferase mRNA that is not coated by LNP).

[2] = tested on: respiratory syncytial virus (RSV); test: RSV mRNA vaccine in mice, RSV true virus neutralizing antibody titers; assay type: in vivo, BALB/c mice; conditions: 10 µg per mouse i.m., two immunizations three weeks apart, serum 14 days after the second; result in words versus antigen protein or SM102
Description: An RSV antigen mRNA sequence with a pre-fusion F protein conformation was prepared by a cap analogue co-transcription method, the sequence information is as shown in sequence 1 (SEQ ID NO: 1), and the amino acid sequence of the expressed antigen protein is as shown in sequence 2 (SEQ ID NO: 2). LNPs containing RSV-mRNA were prepared by respectively using lipid 174 and sm102 in a lipid ratio of formulation 1, wherein N/P was 6. The particle sizes and mRNA encapsulation efficiency data of two LNPs are as follows: lipid 174 has a particle size of 77.6 nm and an encapsulation efficiency of 96.2%; and sm102 has a particle size of 96.1 nm and an encapsulation efficiency of 97.9%. The LNP preparation encapsulating RSV mRNA and an F protein antigen with a pre-fusion conformation were intramuscularly administrated to BALB/c mice at a dose of 10 µg per mouse, with immunization once every three weeks for two immunizations in total. 14 days after secondary immunization, mouse serum was collected and submitted to CRO for detection of RSV true virus neutralizing antibody titers.

[3] = Determination of total nucleic acid and encapsulation efficiency (Quant-iT RiboGreen RNA kit); assay type: physicochemical; conditions: LNP with RSV-mRNA, lipid ratio of formulation 1, N/P 6
Description: The content of nucleic acids in an LNP sample was determined through a Quant-iT™ RiboGreen® RNA detection kit (Thermofisher). The detection of total RNA concentration: 5 µl of to-be-detected sample was placed into 2 ml of ep tube, 245 µl of 1xTE Buffer was added, and the above materials were evenly mixed to obtain a "diluted sample". 100 µl of the above "diluted sample" was taken, 100 µl of 10% TritonX-100 solution was added, the above materials were sufficiently and evenly mixed, and then the obtained mixture was demulsified for 15 min in metal bath under the conditions of 37°C and 300 rpm; and 80 µl of 1xTE Buffer was added into an ELISA plate, 20 µl of demulsified sample was taken and added into the ELISA plate to be evenly mixed, and then 100 µl of fluorescence dye (2000-fold dilution) solution was added.
Detection of free RNA concentration: 90 µl of 1xTE Buffer was added into the ELISA plate, 10 µl of the above "diluted sample" was taken, and 100 µl of fluorescence dye (2000-fold dilution) solution was added.
Meanwhile, a series of standard solutions having different concentrations were set in the ELISA plate as quantitative standard curves. The samples were loaded onto the ELISA plate to detect fluorescence signals (with an excitation wavelength of 480 nm and an emission detection wavelength of 520). A corresponding RNA concentration was obtained after the fluorescence signal in each well was converted via the standard curve.
Calculation method of encapsulation efficiency: EE(%) = (Concentration of total mRNA−concentration of free mRNA)/(Concentration of total mRNA)∗100% [formula]

A549 cells = test: In vitro delivery of luciferase mRNA by LNPs, A549 cells; assay type: cell-based, human; conditions: 100 ng luciferase mRNA per well, 24 h; ratio to naked mRNA control; result in words
Description: as §1

[4] = LNPs after coating mRNA (luciferase)

## CCCCCCCCCCCCCC(=O)N(CCCN(C)C)C(C(=O)NCCCCCCCC(=O)OC(CCCCCCCC)CCCCCCCC)C(C)(C)C (centres unmarked) [Lipid 174]
C57Bl/6 mice
  Chemiluminescent signal (p/s): 3.15E+09 p/s
[1]; LNP with RSV-mRNA, lipid ratio of formulation 1, N/P 6
  Particle size: 77.6 nm
[1]; [4]
  PDI: 0.17
  Particle size: 202.44 ± 2.28 nm·days
293T cells
  transfection (delivery) efficiency of LNP in 293T cells: relatively high delivery efficiency
[2]
  RSV true virus neutralizing antibody titer: can efficiently stimulate the mouse to generate a neutralizing antibody targeting RSV
[3]
  encapsulation efficiency: 96.2%
A549 cells
  transfection (delivery) efficiency of LNP in A549 cells: relatively high delivery efficiency
